According to patent US11504349B2, “Composition for preventing or treating TNF-related diseases, containing novel derivative as active ingredient, and method for inhibiting TNF activity by using same” (ILAB, priority 2017, dated 2022):

Tests used:
[1] = target: TNF (Homo sapiens, UniProt P01375); experiment: TNF-neutralization bioassay: TNF-induced cell death of LM cells (MTT); assay type: cell-based; details: for inhibition at 50 µM: compound 50 μM, TNF 20 ng/ml, actinomycin D, LM cells, 24 hours; for IC50: inhibition of TNF-induced LM cell death
Sequence of TNF (P01375 77-233 limits assumed): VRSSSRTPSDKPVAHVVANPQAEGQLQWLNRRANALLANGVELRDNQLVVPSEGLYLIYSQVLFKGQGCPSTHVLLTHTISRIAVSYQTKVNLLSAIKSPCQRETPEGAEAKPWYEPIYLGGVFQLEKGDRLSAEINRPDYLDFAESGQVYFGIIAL
Experimental: (§1) First, the addition of recombinant TNF to mouse fibroblast LM cells induces cell death, and thus, by using the same, the TNF-neutralization bioassay was constructed. In other words, LM cells were pretreated with TNF (20 ng/ml) and the compounds synthesized in the above examples at various concentrations (5×10^4 cells/well), and a sensitizer actinomycin D ([…]) was added, and cultured in a CO2 incubator for 24 hours, and then the MTT assay was carried out. At this time, 10 μl of MTT (5 mg/ml stock) was added, reacted for 4 hours, and then dissolved in DMSO to measure the absorbance at 570 nm. First, the TNF cell death inhibition/neutralization action of TNF-target expected compounds at single concentration (50 or 10 μM) was measured. Second, IC50 values were determined by treating with the compounds having an excellent effect at different concentrations. The % inhibition of TNF was calculated using the following formula: % inhibition of TNF=(OD value of a group treated with TNF and compound−OD value of TNF treated group/(OD value of TNF untreated group−OD value of TNF treated group)×100.
(§2) IC50 values were statistically analyzed using Prism 6 (GraphPad) (IC50: 50% inhibitory concentration, CC50: 50% cytotoxic concentration).

[2] = Cytotoxicity (CC50) in LM cells, MTT assay; assay type: cell-based; details: mouse, LM cells (mouse fibroblasts); 50% cytotoxic concentration
Experimental: as §1, §2

Row | melting point [°C] | Compound | inhibition at 50 µM [1] [%] | IC50 [1] [µM] | CC50 at 24 h [2] [µM]
1 | 160 to 163 | O=C(O)c1c(-c2cccc(F)c2)oc2cc(Cl)ccc2c1=O [Example 44, 2-(3-fluorophenyl)-3-carboxy-7-chloro-(4H)-4-benzopyranone] | 93.2 | 45.6 | > 50
2 | 216 to 217 | O=C(O)c1c(-c2cccc(F)c2)oc2ccc(Cl)cc2c1=O [Example 45, 2-(3-fluorophenyl)-3-carboxy-6-chloro-(4H)-4-benzopyranone] | 88.4 | 18.5 | 42
3 | 222 to 223 | O=C(O)c1c(-c2cccc(F)c2)oc2ccc(Br)cc2c1=O [Example 46, 2-(3-fluorophenyl)-3-carboxy-6-bromo-(4H)-4-benzopyranone] | 100 | 28.9 | > 50
4 | 207 to 209 | O=C(O)c1c(-c2cc(F)cc(F)c2)oc2ccc(Cl)cc2c1=O [Example 50, 2-(3,5-difluorophenyl)-3-carboxy-6-chloro-(4H)-4-benzopyranone] | 100 | 5.1 | 36
5 | 168 to 170 | O=C(O)c1c(-c2cc(F)ccc2F)oc2ccc(Cl)cc2c1=O [Example 62, 2-(2,5-difluorophenyl)-3-carboxy-6-chloro-(4H)-4-benzopyranone] | 100 | 3.8 | 17
6 | 195 to 198 | O=C(O)c1c(-c2ccc(F)c(F)c2)oc2ccc(Cl)cc2c1=O [Example 67, 2-(3,4-difluorophenyl)-3-carboxy-6-chloro-(4H)-4-benzopyranone] | 100 | 3.9 | 21

Continued, molecule first:

Row | Compound | melting point [°C] | inhibition at 50 µM [1] [%] | IC50 [1] [µM] | CC50 at 24 h [2] [µM]
7 | O=C(O)c1c(-c2ccco2)oc2ccc(Cl)cc2c1=O [Example 23, 2-(2-furanyl)-3-carboxy-6-chloro-(4H)-4-benzopyranone] | 196 to 198 | 70.1 | 2.7 | > 50
8 | O=C(O)c1c(-c2ccco2)oc2ccc(Br)cc2c1=O [Example 24, 2-(2-furanyl)-3-carboxy-6-bromo-(4H)-4-benzopyranone] | 209 to 211 | 76.3 | 2.5 | > 50
9 | COc1ccc(-c2oc3ccc(Br)cc3c(=O)c2C(=O)O)cc1OC [Example 40, 2-(3,4-dimethoxyphenyl)-3-carboxy-6-bromo-(4H)-4-benzopyranone] | 242 to 243 | 100 | 122 | > 50
10 | O=C(O)c1c(-c2cccc(F)c2F)oc2cc(Cl)ccc2c1=O [Example 55, 2-(2,3-difluorophenyl)-3-carboxy-7-chloro-(4H)-4-benzopyranone] | ≥ 220 | 100 | 33.6 | 25
11 | O=C(O)c1c(-c2cccc(F)c2F)oc2ccc(Cl)cc2c1=O [Example 56, 2-(2,3-difluorophenyl)-3-carboxy-6-chloro-(4H)-4-benzopyranone] | ≥ 120 | 100 | 16.4 | 49
12 | O=C(O)c1c(-c2cccc(F)c2F)oc2ccc(Br)cc2c1=O [Example 57, 2-(2,3-difluorophenyl)-3-carboxy-6-bromo-(4H)-4-benzopyranone] | ≥ 120 | 100 | 10.3 | 47
13 | O=C(O)c1c(-c2cc(F)ccc2F)oc2ccc(Br)cc2c1=O [Example 63, 2-(2,5-difluorophenyl)-3-carboxy-6-bromo-(4H)-4-benzopyranone] | 152 to 153 | 100 | 36.9 | 36
14 | O=C(O)c1c(-c2ccc(Cl)cc2)oc2ccc(Cl)cc2c1=O [Example 71, 2-(4-chlorophenyl)-3-carboxy-6-chloro-(4H)-4-benzopyranone] | 227 to 228 | 97.9 | 3.3 | 36
